Laboratory results from US10168342B2, “Lipid probes and uses thereof” (THE SCRIPPS RESEARCH INSTITUTE, priority 2015, dated 2019).
Like-named read-outs stand apart in the source and are kept apart here.

How the values were obtained:
[1] = target: T1, AEA-DA lipid probe targets in Neuro2a cells (Mus musculus, UniProt O88531)
T1 sequence (O88531 28-306): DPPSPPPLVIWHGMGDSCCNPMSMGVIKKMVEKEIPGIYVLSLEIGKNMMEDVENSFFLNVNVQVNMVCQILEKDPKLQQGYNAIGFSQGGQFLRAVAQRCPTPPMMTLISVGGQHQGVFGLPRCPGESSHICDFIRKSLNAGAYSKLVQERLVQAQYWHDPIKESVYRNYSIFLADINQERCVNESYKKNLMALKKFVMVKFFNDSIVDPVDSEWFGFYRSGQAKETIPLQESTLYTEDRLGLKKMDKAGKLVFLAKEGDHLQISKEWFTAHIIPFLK

[2] = target: T2, AEA-DA lipid probe targets in Neuro2a cells (Mus musculus, UniProt P21995)
T2 sequence (P21995 34-330): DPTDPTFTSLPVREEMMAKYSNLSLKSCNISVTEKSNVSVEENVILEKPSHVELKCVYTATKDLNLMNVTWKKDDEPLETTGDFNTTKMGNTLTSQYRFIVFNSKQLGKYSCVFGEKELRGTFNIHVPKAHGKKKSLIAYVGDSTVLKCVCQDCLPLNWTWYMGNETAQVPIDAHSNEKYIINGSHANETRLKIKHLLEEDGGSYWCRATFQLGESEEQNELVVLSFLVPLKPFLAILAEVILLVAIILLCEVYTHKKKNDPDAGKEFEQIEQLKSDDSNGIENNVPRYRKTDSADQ

[3] = target: AEA-DA lipid probe targets in Neuro2a cells (Mus musculus, UniProt P47867)
Chain of AEA-DA lipid probe targets in Neuro2a cells (Mus musculus, UniProt P47867) (P47867 23-471): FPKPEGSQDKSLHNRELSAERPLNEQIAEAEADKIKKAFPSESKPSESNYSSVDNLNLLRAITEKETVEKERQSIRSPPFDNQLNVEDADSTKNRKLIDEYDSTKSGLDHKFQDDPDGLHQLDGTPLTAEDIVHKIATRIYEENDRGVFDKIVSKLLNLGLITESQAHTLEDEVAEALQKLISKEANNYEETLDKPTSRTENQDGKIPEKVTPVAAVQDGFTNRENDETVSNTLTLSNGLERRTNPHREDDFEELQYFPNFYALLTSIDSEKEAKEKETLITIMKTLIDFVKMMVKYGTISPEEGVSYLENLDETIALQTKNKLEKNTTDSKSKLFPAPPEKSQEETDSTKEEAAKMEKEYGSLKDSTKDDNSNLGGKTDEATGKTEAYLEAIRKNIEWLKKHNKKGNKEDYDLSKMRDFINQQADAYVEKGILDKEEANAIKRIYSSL

[4] = target: T3, AEA-DA lipid probe targets in Neuro2a cells (Mus musculus, UniProt P52825)
T3 sequence (P52825 26-658): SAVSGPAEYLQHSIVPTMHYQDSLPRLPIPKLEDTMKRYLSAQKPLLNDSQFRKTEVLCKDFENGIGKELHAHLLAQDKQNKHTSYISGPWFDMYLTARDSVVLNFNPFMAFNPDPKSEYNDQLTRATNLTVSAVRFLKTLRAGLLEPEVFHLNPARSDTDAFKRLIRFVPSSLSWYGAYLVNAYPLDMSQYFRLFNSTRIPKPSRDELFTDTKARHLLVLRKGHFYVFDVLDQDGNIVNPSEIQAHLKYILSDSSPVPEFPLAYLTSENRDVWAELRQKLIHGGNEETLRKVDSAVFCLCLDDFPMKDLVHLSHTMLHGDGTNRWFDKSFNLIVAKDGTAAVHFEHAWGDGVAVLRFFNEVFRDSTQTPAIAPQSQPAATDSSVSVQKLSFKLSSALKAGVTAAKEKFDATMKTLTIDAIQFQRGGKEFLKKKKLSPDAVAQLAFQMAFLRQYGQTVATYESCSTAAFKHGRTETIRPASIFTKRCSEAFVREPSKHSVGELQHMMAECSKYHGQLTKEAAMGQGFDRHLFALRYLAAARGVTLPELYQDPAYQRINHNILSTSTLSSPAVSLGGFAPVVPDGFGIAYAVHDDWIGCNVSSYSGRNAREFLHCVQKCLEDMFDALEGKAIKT

[5] = target: T4, AEA-DA lipid probe targets in Neuro2a cells (Mus musculus, UniProt P57776)
T4 sequence (P57776 1-281): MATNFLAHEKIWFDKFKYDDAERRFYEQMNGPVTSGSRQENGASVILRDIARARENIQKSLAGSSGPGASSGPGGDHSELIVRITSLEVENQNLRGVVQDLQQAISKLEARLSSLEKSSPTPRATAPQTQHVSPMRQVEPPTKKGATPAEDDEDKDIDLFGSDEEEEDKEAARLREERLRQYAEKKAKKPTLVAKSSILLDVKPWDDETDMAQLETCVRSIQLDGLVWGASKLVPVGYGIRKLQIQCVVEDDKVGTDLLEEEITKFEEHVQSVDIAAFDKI

[6] = target: AEA-DA lipid probe targets in Neuro2a cells (Mus musculus, UniProt Q6PA06)
Chain of AEA-DA lipid probe targets in Neuro2a cells (Mus musculus, UniProt Q6PA06) (Q6PA06 whole entry): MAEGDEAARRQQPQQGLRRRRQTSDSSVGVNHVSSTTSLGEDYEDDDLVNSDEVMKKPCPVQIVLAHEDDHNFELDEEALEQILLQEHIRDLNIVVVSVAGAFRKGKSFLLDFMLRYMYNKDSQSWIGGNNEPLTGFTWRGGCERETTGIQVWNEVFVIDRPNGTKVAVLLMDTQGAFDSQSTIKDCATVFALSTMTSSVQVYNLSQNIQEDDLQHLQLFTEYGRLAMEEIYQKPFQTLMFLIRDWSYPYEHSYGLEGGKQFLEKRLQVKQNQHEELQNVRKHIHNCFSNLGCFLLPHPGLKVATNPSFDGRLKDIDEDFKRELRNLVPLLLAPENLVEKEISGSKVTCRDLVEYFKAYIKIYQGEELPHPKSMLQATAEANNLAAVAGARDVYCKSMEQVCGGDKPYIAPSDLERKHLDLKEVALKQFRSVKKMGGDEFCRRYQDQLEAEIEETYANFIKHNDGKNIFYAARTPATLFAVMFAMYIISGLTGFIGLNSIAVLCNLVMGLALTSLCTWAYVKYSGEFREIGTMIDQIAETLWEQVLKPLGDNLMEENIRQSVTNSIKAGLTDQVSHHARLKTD

[7] = target: T5, AEA-DA lipid probe targets in Neuro2a cells (Mus musculus, UniProt Q8R404)
T5 sequence (Q8R404 1-119): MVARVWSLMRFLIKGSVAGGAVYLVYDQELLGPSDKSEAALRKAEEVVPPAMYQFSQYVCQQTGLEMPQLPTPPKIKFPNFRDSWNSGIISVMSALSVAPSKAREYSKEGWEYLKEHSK

[8] = target: T6, AEA-DA lipid probe targets in Neuro2a cells (Mus musculus, UniProt Q8VCB1); settings: for SILAC ratio, TMEM48 (Q8VCB1): Neuro2a cells, AEA-DA probe
T6 sequence (Q8VCB1 1-673): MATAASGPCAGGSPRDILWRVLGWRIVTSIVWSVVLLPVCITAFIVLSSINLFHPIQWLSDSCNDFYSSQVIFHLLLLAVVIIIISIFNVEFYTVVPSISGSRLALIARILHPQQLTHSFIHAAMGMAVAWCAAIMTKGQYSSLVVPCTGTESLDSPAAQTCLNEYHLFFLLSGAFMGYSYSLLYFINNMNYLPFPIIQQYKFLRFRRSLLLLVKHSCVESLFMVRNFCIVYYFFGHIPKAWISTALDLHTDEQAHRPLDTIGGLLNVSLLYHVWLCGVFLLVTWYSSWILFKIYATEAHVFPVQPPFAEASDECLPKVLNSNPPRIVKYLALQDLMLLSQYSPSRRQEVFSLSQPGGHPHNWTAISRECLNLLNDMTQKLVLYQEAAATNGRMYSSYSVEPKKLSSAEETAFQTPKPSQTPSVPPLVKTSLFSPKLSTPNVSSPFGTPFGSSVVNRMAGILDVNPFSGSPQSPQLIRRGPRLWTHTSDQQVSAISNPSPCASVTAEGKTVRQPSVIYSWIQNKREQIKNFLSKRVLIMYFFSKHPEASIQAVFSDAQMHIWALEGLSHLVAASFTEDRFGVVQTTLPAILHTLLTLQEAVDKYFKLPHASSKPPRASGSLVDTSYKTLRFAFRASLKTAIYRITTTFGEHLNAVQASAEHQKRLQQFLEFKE

[9] = target: AEA-DA lipid probe targets in Neuro2a cells (Mus musculus, UniProt Q8VDL4)
Chain of AEA-DA lipid probe targets in Neuro2a cells (Mus musculus, UniProt Q8VDL4) (Q8VDL4 23-496): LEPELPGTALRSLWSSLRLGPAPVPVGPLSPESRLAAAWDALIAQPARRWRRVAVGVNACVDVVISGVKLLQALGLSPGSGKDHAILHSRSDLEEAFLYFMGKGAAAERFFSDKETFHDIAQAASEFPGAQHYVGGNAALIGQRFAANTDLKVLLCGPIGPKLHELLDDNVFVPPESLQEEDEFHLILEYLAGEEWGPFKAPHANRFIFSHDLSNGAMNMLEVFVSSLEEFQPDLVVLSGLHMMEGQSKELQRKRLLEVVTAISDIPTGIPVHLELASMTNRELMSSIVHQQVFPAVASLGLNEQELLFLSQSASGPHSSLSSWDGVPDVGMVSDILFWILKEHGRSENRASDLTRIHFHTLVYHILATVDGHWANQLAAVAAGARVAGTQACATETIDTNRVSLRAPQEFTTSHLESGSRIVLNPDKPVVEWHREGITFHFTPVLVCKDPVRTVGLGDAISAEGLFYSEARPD

CCCCC/C=C\C/C=C\C/C=C\C/C=C\CCCC(=O)NCCO [AEA, anandamide, reference compound]
SILAC ratio Ppt1 ([1]; competitor 200 μM): 1.1
SILAC ratio, Emb ([2]; competitor 200 μM): 1.8
SILAC ratio, Scg3 ([3]; competitor 200 μM): 1.2
SILAC ratio, Cpt2 ([4]; competitor 200 μM): 1.1
SILAC ratio Eef1d ([5]; competitor 200 μM): 1.1
SILAC ratio, Atl2 ([6]; competitor 200 μM): 2.0
SILAC ratio, Qil1 ([7]; competitor 200 μM): 1.9
SILAC ratio, TMEM48 (Q8VCB1) ([8]; competitor 200 μM): 1.9
SILAC ratio, Tmem48 ([8]; competitor 200 μM): 1.9
SILAC ratio, Adpgk ([9]; competitor 200 μM): 1.8

O=C(/C=C/c1cccnc1)NCCCCC1CCN(C(=O)c2ccccc2)CC1 [FK-866, reference compound]
SILAC ratio Ppt1 ([1]; competitor 25 μM): 0.8
SILAC ratio, Emb ([2]; competitor 25 μM): 1.3
SILAC ratio, Scg3 ([3]; competitor 25 μM): 1.0
SILAC ratio, Cpt2 ([4]; competitor 25 μM): 3.1
SILAC ratio Eef1d ([5]; competitor 25 μM): 1.2
SILAC ratio, Atl2 ([6]; competitor 25 μM): 1.1
SILAC ratio, Qil1 ([7]; competitor 25 μM): 1.2
SILAC ratio, TMEM48 (Q8VCB1) ([8]; competitor 25 μM): 1.2
SILAC ratio, Tmem48 ([8]; competitor 25 μM): 1.2
SILAC ratio, Adpgk ([9]; competitor 25 μM): 1.2

CN1CCN(C(=O)c2c(-c3ccccc3)c3cc([N+](=O)[O-])ccc3n2C)CC1 [KML110, (1-Methyl-5-nitro-3-phenyl-1H-indol-2-yl)(4-methylpiperazin-1-yl)methanone]
SILAC ratio Ppt1 ([1]; competitor 25 μM): 1.2
SILAC ratio, Emb ([2]; competitor 25 μM): 1.8
SILAC ratio, Scg3 ([3]; competitor 25 μM): 1.0
SILAC ratio, Cpt2 ([4]; competitor 25 μM): 1.5
SILAC ratio Eef1d ([5]; competitor 25 μM): 1.4
SILAC ratio, Atl2 ([6]; competitor 25 μM): 1.3
SILAC ratio, Qil1 ([7]; competitor 25 μM): 1.5
SILAC ratio, Tmem48 ([8]; competitor 25 μM): 1.6
SILAC ratio, Adpgk ([9]; competitor 25 μM): 1.5

CN1CCN(C(=O)c2[nH]c3ccc([N+](=O)[O-])cc3c2-c2ccccc2)CC1 [MJN228, (4-Methylpiperazin-1-yl)(5-nitro-3-phenyl-1H-indol-2-yl)methanone]
SILAC ratio Ppt1 ([1]; competitor 10 μM): 1.5
SILAC ratio Ppt1 ([1]; competitor 25 μM): 1.5
SILAC ratio Ppt1 ([1]; competitor 50 μM): 2.1
SILAC ratio Ppt1 ([1]; competitor 100 μM): 4.3
SILAC ratio, Emb ([2]; competitor 10 μM): 1.3
SILAC ratio, Emb ([2]; competitor 25 μM): 1.7
SILAC ratio, Emb ([2]; competitor 50 μM): 1.4
SILAC ratio, Emb ([2]; competitor 100 μM): 2.2
SILAC ratio, Scg3 ([3]; competitor 10 μM): 1.0
SILAC ratio, Scg3 ([3]; competitor 25 μM): 1.3
SILAC ratio, Scg3 ([3]; competitor 50 μM): 1.0
SILAC ratio, Scg3 ([3]; competitor 100 μM): 0.8
SILAC ratio, Cpt2 ([4]; competitor 10 μM): 1.3
SILAC ratio, Cpt2 ([4]; competitor 25 μM): 1.7
SILAC ratio, Cpt2 ([4]; competitor 50 μM): 2.7
SILAC ratio, Cpt2 ([4]; competitor 100 μM): 5.5
SILAC ratio Eef1d ([5]; competitor 25 μM): 1.3
SILAC ratio Eef1d ([5]; competitor 100 μM): 1.4
SILAC ratio, Atl2 ([6]; competitor 10 μM): 1.1
SILAC ratio, Atl2 ([6]; competitor 25 μM): 1.4
SILAC ratio, Atl2 ([6]; competitor 50 μM): 1.6
SILAC ratio, Qil1 ([7]; competitor 10 μM): 1.2
SILAC ratio, Qil1 ([7]; competitor 25 μM): 1.5
SILAC ratio, Qil1 ([7]; competitor 50 μM): 1.7
SILAC ratio, Qil1 ([7]; competitor 100 μM): 2.5
SILAC ratio, TMEM48 (Q8VCB1) ([8]; competitor 25 μM): 1.5
SILAC ratio, Tmem48 ([8]; competitor 10 μM): 1.3
SILAC ratio, Tmem48 ([8]; competitor 25 μM): 1.5
SILAC ratio, Tmem48 ([8]; competitor 50 μM): 1.9
SILAC ratio, Tmem48 ([8]; competitor 100 μM): 2.8
SILAC ratio, Adpgk ([9]; competitor 10 μM): 1.4
SILAC ratio, Adpgk ([9]; competitor 25 μM): 1.7
SILAC ratio, Adpgk ([9]; competitor 50 μM): 1.5
SILAC ratio, Adpgk ([9]; competitor 100 μM): 2.0

C=CCN(C)CCCCCCOc1ccc(C(=O)c2ccc(Br)cc2)c(F)c1 [Ro 48-8071, reference compound]
SILAC ratio Ppt1 ([1]; competitor 25 μM): 1.6
SILAC ratio, Emb ([2]; competitor 25 μM): 1.1
SILAC ratio, Scg3 ([3]; competitor 25 μM): 0.9
SILAC ratio, Cpt2 ([4]; competitor 25 μM): 2.1
SILAC ratio Eef1d ([5]; competitor 25 μM): 0.9
SILAC ratio, Atl2 ([6]; competitor 25 μM): 1.2
SILAC ratio, Qil1 ([7]; competitor 25 μM): 1.2
SILAC ratio, TMEM48 (Q8VCB1) ([8]; competitor 25 μM): 1.1
SILAC ratio, Tmem48 ([8]; competitor 25 μM): 1.1
SILAC ratio, Adpgk ([9]; competitor 25 μM): 1.2
